In the supplement of paper PMC5908809:

Legend:
NK-YS (IL-2 2.5 ng/mL) [1] = test: percent inhibition of viability; higher = more inhibition; details: 72 h
KHYG-1 (IL-2 2.5 ng/mL) [2] = test: as above; details: 72 h
NKL (IL-2 2.5 ng/mL) [3] = test: as above; details: 72 h
YT (IL-2 2.5 ng/mL) [4] = test: as above; details: 72 h
SNK-6 (IL-2 2.5 ng/mL) [5] = test: as above; details: 72 h
[6] = tested on: normal primary NK cells, pool 1 (3 donors), resting (IL-2 0 ng/mL); test: as above; details: 72 h
NK-92 (IL-2 2.5 ng/mL) [7] = test: as above; details: 72 h
DERL-7 (IL-2 2.5 ng/mL) [8] = test: as above; details: 72 h
[9] = tested on: normal primary NK cells, pool 3 (3 donors) (IL-2 2.5 ng/mL); test: as above; details: 72 h
KAI3 (IL-2 2.5 ng/mL) [10] = test: as above; details: 72 h
[11] = tested on: normal primary NK cells, pool 2 (3 donors) (IL-2 2.5 ng/mL); test: as above; details: 72 h
IMC-1 (IL-2 20 ng/mL) [12] = test: as above; details: 72 h
[13] = tested on: normal primary NK cells, pool 1 (3 donors) (IL-2 2.5 ng/mL); test: as above; details: 72 h
[14] = tested on: normal NK cells expanded with K562-aAPC; test: as above; details: 72 h, IL-2 2.5 ng/mL
Description: (§1)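 Drug sensitivity and resistance testing on K562-aAPC-expanded normal NK cells: 5 concentrations (10-fold steps over a 10,000-fold range), 72 h at 37 °C, viability by CellTiter-Glo normalised to DMSO and benzethonium chloride controls; DSS from the fitted curve.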

NK-YS (IL-2 2.5 ng/mL) [15] = test: drug sensitivity score (DSS) (DSS units); higher = more sensitive; extreme values may be limits of the assay; details: 72 h
KHYG-1 (IL-2 2.5 ng/mL) [16] = test: as above; details: 72 h
NKL (IL-2 2.5 ng/mL) [17] = test: as above; details: 72 h
YT (IL-2 2.5 ng/mL) [18] = test: as above; details: 72 h
SNK-6 (IL-2 2.5 ng/mL) [19] = test: as above; details: 72 h
[20] = tested on: normal primary NK cells, pool 1 (3 donors), resting (IL-2 0 ng/mL); test: as above; details: 72 h
NK-92 (IL-2 2.5 ng/mL) [21] = test: as above; details: 72 h
DERL-7 (IL-2 2.5 ng/mL) [22] = test: as above; details: 72 h
[23] = tested on: normal primary NK cells, pool 3 (3 donors) (IL-2 2.5 ng/mL); test: as above; details: 72 h
KAI3 (IL-2 2.5 ng/mL) [24] = test: as above; details: 72 h
[25] = tested on: normal primary NK cells, pool 2 (3 donors) (IL-2 2.5 ng/mL); test: as above; details: 72 h
IMC-1 (IL-2 20 ng/mL) [26] = test: as above; details: 72 h
[27] = tested on: normal primary NK cells, pool 1 (3 donors) (IL-2 2.5 ng/mL); test: as above; details: 72 h
[28] = tested on: normal NK cells expanded with K562-aAPC; test: as above; details: 72 h; IL-2 2.5 ng/mL
Description: as §1

C=CCc1cccc(/C=N/NC(=O)CN2CCN(Cc3ccccc3)CC2)c1O [PAC-1] (max concentration tested 10000 nM)
percent inhibition of viability [%]
Details | 1 nM | 10 nM | 100 nM | 1000 nM | 10000 nM
DERL-7 (IL-2 2.5 ng/mL) [8] | -1.36 | 2.12 | -2.94 | 12.2 | 80.9
IMC-1 (IL-2 20 ng/mL) [12] | -3.49 | -2.97 | 1.56 | 1.88 | 100
KAI3 (IL-2 2.5 ng/mL) [10] | -5.72 | -3.85 | 4.89 | 62.6 | 96.5
KHYG-1 (IL-2 2.5 ng/mL) [2] | -1.19 | -1.29 | 5.59 | 74.1 | 104
NK-92 (IL-2 2.5 ng/mL) [7] | -11.7 | -11 | 17.2 | 50.3 | 103
NK-YS (IL-2 2.5 ng/mL) [1] | -1.58 | -1.32 | 5.2 | 5.35 | 97.7
NKL (IL-2 2.5 ng/mL) [3] | -9.29 | 8.69 | 4.48 | 69.2 | 97.8
SNK-6 (IL-2 2.5 ng/mL) [5] | 10.2 | 3.22 | 2.33 | 48.9 | 97.7
YT (IL-2 2.5 ng/mL) [4] | -0.7 | -1.17 | 5.18 | 22.7 | 99
[6] | -5.08 | -13.3 | -0.24 | -2.95 | 89.9
[9] | -13.1 | -3.83 | 0.14 | 15.8 | 96
[11] | -14.6 | -2.22 | 5.41 | 12 | 86.3
[13] | -3.78 | -2.13 | -1.5 | 3.37 | 92.1
[14] | -3.35 | 4.92 | 2.56 | 20.9 | 96.8

Details | drug sensitivity score
DERL-7 (IL-2 2.5 ng/mL) [22] | 6.53
IMC-1 (IL-2 20 ng/mL) [26] | 5.83
KAI3 (IL-2 2.5 ng/mL) [24] | 13
KHYG-1 (IL-2 2.5 ng/mL) [16] | 14.7
NK-92 (IL-2 2.5 ng/mL) [21] | 12
NK-YS (IL-2 2.5 ng/mL) [15] | 6.2
NKL (IL-2 2.5 ng/mL) [17] | 13.9
SNK-6 (IL-2 2.5 ng/mL) [19] | 11.3
YT (IL-2 2.5 ng/mL) [18] | 9.03
[20] | 4.76
[23] | 7.93
[25] | 6.79
[27] | 5.57
[28] | 8.67

COc1cc2nccc(Oc3ccc(NC(=O)Nc4cc(C)on4)c(Cl)c3)c2cc1OC [Tivozanib] (max concentration tested 10000 nM)
percent inhibition of viability [%]
Details | 1 nM | 10 nM | 100 nM | 1000 nM | 10000 nM
DERL-7 (IL-2 2.5 ng/mL) [8] | 6.25 | -4.07 | 8.65 | 3.71 | 74.2
IMC-1 (IL-2 20 ng/mL) [12] | 0.39 | 1.69 | -1.08 | 4.81 | 20.3
KAI3 (IL-2 2.5 ng/mL) [10] | 0.42 | 12.7 | 7.97 | 8.25 | 33.2
KHYG-1 (IL-2 2.5 ng/mL) [2] | 2.06 | 3.29 | 1.48 | 11.4 | 50.2
NK-92 (IL-2 2.5 ng/mL) [7] | 17.7 | 7.65 | 22.3 | 42.5 | 71
NK-YS (IL-2 2.5 ng/mL) [1] | -1.25 | 1.72 | 3.3 | 12.8 | 64.8
NKL (IL-2 2.5 ng/mL) [3] | -0.1 | -11 | -5.13 | 8.13 | 47.4
SNK-6 (IL-2 2.5 ng/mL) [5] | 0.59 | 1.54 | -8.58 | 41.8 | 65.3
YT (IL-2 2.5 ng/mL) [4] | 8.31 | 9.93 | 8.18 | 19.9 | 61.6
[6] | 5.37 | -0.35 | 5.84 | 18.5 | 67.5
[9] | 8.53 | 3.31 | 5.07 | 0.75 | 3.16
[11] | 5.79 | 7.02 | 3.11 | -2.45 | 29.2
[13] | -3.27 | -5.56 | -13 | 7.21 | 36.9
[14] | -1.14 | -3.52 | -0.12 | 3.67 | -4.22

Details | drug sensitivity score
DERL-7 (IL-2 2.5 ng/mL) [22] | 4.63
IMC-1 (IL-2 20 ng/mL) [26] | 1.23
KAI3 (IL-2 2.5 ng/mL) [24] | 2.57
KHYG-1 (IL-2 2.5 ng/mL) [16] | 4.48
NK-92 (IL-2 2.5 ng/mL) [21] | 11.5
NK-YS (IL-2 2.5 ng/mL) [15] | 5.65
NKL (IL-2 2.5 ng/mL) [17] | 3.83
SNK-6 (IL-2 2.5 ng/mL) [19] | 8.55
YT (IL-2 2.5 ng/mL) [18] | 5.67
[20] | 6.37
[23] | 0
[25] | 1.08
[27] | 2.94
[28] | 0
